In test [1] the target is PI3K-δ (PI3K(p1108/p857) (h)) (Homo sapiens, UniProt O00329). The test can be described thus: Evaluation of inhibitory activity against PI3K-δ (HTRF kinase assay). The class given is biochemical. As to conditions: for inhibition at 0.01 µM: compound concentration 0.01 μM, read-out: EXP_VALUE(% Inhibition) PI3K-δ 0.01 μM; for inhibition at 0.1 µM: compound concentration 0.1 μM, read-out: EXP_VALUE(% Inhibition) PI3K-δ 0.1 μM. Put shortly:
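HTRF read-out (665/620 nm ratio ×10000) used Eu-labelled anti-GST, GST-tagged GRP1 PH domain and streptavidin-allophycocyanin after EDTA/PIP3 stop.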
On the technique in general: TR-FRET usually uses a lanthanide donor and a delayed reading to cut background.

The next test deals with DNA-PK(h) (Homo sapiens, UniProt P78527). The experiment in a line: Evaluation of inhibitory activity against DNA-PK (HTRF kinase assay, GST-cMyc-p53 substrate). Type of test: biochemical. As to conditions: for inhibition at 0.01 µM: compound concentration 0.01 μM, read-out: EXP_VALUE(% Inhibition) DNA-PK(h) 0.01 μM; for inhibition at 0.1 µM: compound concentration 0.1 μM, read-out: EXP_VALUE(% Inhibition) DNA-PK(h) 0.1 μM. Put shortly: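 Human DNA-PK with 50 μM GST-cMyc-p53 substrate; reaction started with Mg/ATP, run 30 min at room temperature, stopped with EDTA. Phospho-Ser15 p53 detected by HTRF (Eu anti-phospho-Ser15, d2 anti-GST), signal = 10000×(Em 665/Em 620).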

The inhibition is the drop in the measured response relative to a control, in per cent.

PI3K-δ (PI3K(p1108/p857) (h)), sequence (O00329 whole entry, the tested form may be a part): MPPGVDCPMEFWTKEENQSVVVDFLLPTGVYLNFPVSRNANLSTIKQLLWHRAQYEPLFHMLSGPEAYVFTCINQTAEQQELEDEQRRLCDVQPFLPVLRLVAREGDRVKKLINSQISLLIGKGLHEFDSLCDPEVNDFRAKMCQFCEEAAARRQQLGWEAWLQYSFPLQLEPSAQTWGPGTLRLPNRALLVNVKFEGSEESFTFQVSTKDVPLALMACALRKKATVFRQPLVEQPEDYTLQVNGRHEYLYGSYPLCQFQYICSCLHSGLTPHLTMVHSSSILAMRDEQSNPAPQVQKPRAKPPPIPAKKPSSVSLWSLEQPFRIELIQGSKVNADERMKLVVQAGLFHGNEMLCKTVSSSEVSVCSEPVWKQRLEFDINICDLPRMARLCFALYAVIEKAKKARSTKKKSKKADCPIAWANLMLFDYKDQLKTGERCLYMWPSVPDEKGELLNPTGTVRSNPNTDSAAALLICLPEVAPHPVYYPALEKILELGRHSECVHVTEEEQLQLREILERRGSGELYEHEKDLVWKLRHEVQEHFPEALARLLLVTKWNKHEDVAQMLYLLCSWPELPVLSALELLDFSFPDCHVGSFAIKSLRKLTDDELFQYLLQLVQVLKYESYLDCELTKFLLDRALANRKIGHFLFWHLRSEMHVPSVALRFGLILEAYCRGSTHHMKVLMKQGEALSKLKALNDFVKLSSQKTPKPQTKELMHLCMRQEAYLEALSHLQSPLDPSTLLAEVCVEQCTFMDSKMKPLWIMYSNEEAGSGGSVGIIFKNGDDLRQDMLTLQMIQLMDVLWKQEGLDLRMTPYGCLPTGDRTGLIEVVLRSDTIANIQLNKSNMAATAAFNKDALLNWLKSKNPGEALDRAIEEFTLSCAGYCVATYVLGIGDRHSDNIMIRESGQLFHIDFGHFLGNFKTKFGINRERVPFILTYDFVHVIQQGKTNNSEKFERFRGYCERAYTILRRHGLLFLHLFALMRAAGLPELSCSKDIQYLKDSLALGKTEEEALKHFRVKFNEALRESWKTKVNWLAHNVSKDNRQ
PI3K-δ (PI3K(p1108/p857) (h)), sequence (P27986 whole entry partner, the tested form may be a part): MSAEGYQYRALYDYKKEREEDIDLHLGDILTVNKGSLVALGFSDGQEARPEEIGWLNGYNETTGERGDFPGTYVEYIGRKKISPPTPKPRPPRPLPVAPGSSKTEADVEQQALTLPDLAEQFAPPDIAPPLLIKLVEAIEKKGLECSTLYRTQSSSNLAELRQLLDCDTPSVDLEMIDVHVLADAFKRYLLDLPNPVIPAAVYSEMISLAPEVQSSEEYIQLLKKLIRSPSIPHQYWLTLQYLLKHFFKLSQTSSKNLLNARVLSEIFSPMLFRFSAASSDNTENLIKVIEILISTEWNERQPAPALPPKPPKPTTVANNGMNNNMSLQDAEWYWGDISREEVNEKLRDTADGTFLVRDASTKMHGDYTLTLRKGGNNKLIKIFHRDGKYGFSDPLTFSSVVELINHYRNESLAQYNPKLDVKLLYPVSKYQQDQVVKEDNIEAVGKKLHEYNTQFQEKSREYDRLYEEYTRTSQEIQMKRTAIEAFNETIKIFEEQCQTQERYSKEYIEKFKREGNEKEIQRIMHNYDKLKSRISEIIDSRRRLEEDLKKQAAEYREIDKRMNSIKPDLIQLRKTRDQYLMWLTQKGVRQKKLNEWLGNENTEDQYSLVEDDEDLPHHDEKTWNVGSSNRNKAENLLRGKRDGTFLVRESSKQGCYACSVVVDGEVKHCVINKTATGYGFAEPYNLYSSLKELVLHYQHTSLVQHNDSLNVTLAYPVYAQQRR

As for `Cc1cc(C#N)ccc1-c1cccc2c(Cl)c([C@H](C)Nc3ncnc4[nH]ccc(=O)c34)n(-c3ccccc3)c(=O)c12` [Example 67, (S)-4-(4-chloro-1-oxo-3-(1-((5-oxo-5,8-dihydropyrido[2,3-d]pyrimidin-4-yl)amino)ethyl)-2-phenyl-1,2-dihydroisoquinolin-8-yl)-3-methylbenzonitrile], the figures for the inhibition at 0.01 µM (in test [1]; at DNA-PK(h)) were 82% and 56%, respectively. Besides, the inhibition at 0.1 µM in test [1] came to 92%; at DNA-PK(h), 86%.
The corresponding values for `C[C@H](Nc1ncnc2[nH]ccc(=O)c12)c1c(Cl)c2cccc(-c3cnc(Cl)c4ccccc34)c2c(=O)n1-c1ccccc1` [Example 69, (S)-1,4′-dichloro-3′-(1-((5-oxo-5,8-dihydropyrido[2,3-d]pyrimidin-4-yl)amino)ethyl)-2′-phenyl-(4,8′-biisoquinolin)-1′(2′H)-one] are 3.3%, 3%, 14.5% and 2.7%.
As for `C[C@H](Nc1ncnc2[nH]ccc(=O)c12)c1c(Cl)c2cccc(/C=C/c3ccccc3)c2c(=O)n1-c1ccccc1` [Example 70, (S,E)-4-((1-(4-chloro-1-oxo-2-phenyl-8-styryl-1,2-dihydroisoquinolin-3-yl)ethyl)amino)pyrido[2,3-d]pyrimidin-5(8H)-one], in test [1], the inhibition at 0.01 µM was 10.2% and the inhibition at 0.1 µM was found to be 29.9%. Further, on DNA-PK(h), the inhibition at 0.01 µM was -1.2% and the inhibition at 0.1 µM amounted to 23.6%.
As for `C[C@H](Nc1ncnc2[nH]ccc(=O)c12)c1c(Cl)c2cccc(-c3ccc(Cl)c(Cl)c3)c2c(=O)n1-c1ccccc1` [Example 71, (S)-4-((1-(4-chloro-8-(3,4-dichlorophenyl)-1-oxo-2-phenyl-1,2-dihydroisoquinolin-3-yl)ethyl)amino)pyrido[2,3-d]pyrimidin-5(8H)-one], in test [1], the inhibition at 0.01 µM was 17% and the inhibition at 0.1 µM was found to be 44%. At DNA-PK(h), the inhibition at 0.01 µM amounted to 16% and the inhibition at 0.1 µM turned out to be 41%.
Taken in the same sequence, the figures for `C[C@H](Nc1ncnc2[nH]ccc(=O)c12)c1c(Cl)c2cccc(-c3ccc(N(C)C)cc3)c2c(=O)n1-c1ccccc1` [Example 72, (S)-4-((1-(4-chloro-8-(4-(dimethylamino)phenyl)-1-oxo-2-phenyl-1,2-dihydroisoquinolin-3-yl)ethyl)amino)pyrido[2,3-d]pyrimidin-5(8H)-one] were 99%, 112%, 58% and 96%.
The corresponding values for `C[C@H](Nc1ncnc2[nH]ccc(=O)c12)c1c(Cl)c2cccc(-c3ccc4[nH]ccc4c3)c2c(=O)n1-c1ccccc1` [Example 73, (S)-4-((1-(4-chloro-8-(1H-indol-5-yl)-1-oxo-2-phenyl-1,2-dihydroisoquinolin-3-yl)ethyl)amino)pyrido[2,3-d]pyrimidin-5(8H)-one] are 72%, 86%, 53% and 92%.
As to `Cc1c[nH]c2ccc(-c3cccc4c(Cl)c([C@H](C)Nc5ncnc6[nH]ccc(=O)c56)n(-c5ccccc5)c(=O)c34)cc12` [Example 74, (S)-4-((1-(4-chloro-8-(3-methyl-1H-indol-5-yl)-1-oxo-2-phenyl-1,2-dihydroisoquinolin-3-yl)ethyl)amino)pyrido[2,3-d]pyrimidin-5(8H)-one], the inhibition at 0.01 µM was found to be 65% in test [1] and 54% at DNA-PK(h). Further, the inhibition at 0.1 µM in test [1] amounted to 88%; at DNA-PK(h), 90%.
On to `C[C@H](Nc1ncnc2[nH]ccc(=O)c12)c1c(Cl)c2cccc(-c3ccc(N4CCOCC4)cc3)c2c(=O)n1-c1ccccc1` [Example 75, (S)-4-((1-(4-chloro-8-(4-morpholinophenyl)-1-oxo-2-phenyl-1,2-dihydroisoquinolin-3-yl)ethyl)amino)pyrido[2,3-d]pyrimidin-5(8H)-one], for which the inhibition at 0.01 µM in test [1] turned out to be 79%; on DNA-PK(h), 82%. Further, the inhibition at 0.1 µM came to 86% in test [1] and 99% on DNA-PK(h).
As to `CC(C)C1CCN(c2cccc3c(Cl)c([C@H](C)Nc4ncnc5[nH]ccc(=O)c45)n(-c4ccccc4)c(=O)c23)CC1` [Example 76, (S)-4-((1-(4-chloro-8-(4-isopropylpiperidin-1-yl)-1-oxo-2-phenyl-1,2-dihydroisoquinolin-3-yl)ethyl)amino)pyrido[2,3-d]pyrimidin-5(8H)-one], in test [1], the inhibition at 0.01 µM stood at 14% and the inhibition at 0.1 µM worked out at 43%. At DNA-PK(h), the inhibition at 0.01 µM was determined as 1% and the inhibition at 0.1 µM stood at 20%.
In the case of `C[C@H](Nc1ncnc2[nH]ccc(=O)c12)c1c(Cl)c2cccc(N3CCC(NC(=O)OC(C)(C)C)CC3)c2c(=O)n1-c1ccccc1` [Example 77, tert-butyl(S)-(1-(4-chloro-1-oxo-3-(1-((5-oxo-5,8-dihydropyrido[2,3-d]pyrimidin-4-yl)amino)ethyl)-2-phenyl-1,2-dihydroisoquinolin-8-yl)piperidin-4-yl) carbamate], in test [1], the inhibition at 0.01 µM amounted to 45% and the inhibition at 0.1 µM came out at 78%. Also, on DNA-PK(h), the inhibition at 0.01 µM is 9% and the inhibition at 0.1 µM amounted to 64%.
On to `C[C@H](Nc1ncnc2[nH]ccc(=O)c12)c1c(Cl)c2cccc(N3CCN(c4ccccc4O)CC3)c2c(=O)n1-c1ccccc1` [Example 78, (S)-4-((1-(4-chloro-8-(4-(2-hydroxyphenyl)piperazin-1-yl)-1-oxo-2-phenyl-1,2-dihydroisoquinolin-3-yl)ethyl)amino)pyrido[2,3-d]pyrimidin-5(8H)-one], for which the inhibition at 0.01 µM amounted to 46% in test [1] and 18% at DNA-PK(h). The inhibition at 0.1 µM in test [1] came to 78%; on DNA-PK(h), 56%.
Take `C[C@H](Nc1ncnc2[nH]ccc(=O)c12)c1c(Cl)c2cccc(-c3cccc(C=O)c3)c2c(=O)n1-c1ccccc1` [Example 79, (S)-3-(4-chloro-1-oxo-3-(1-((5-oxo-5,8-dihydropyrido[2,3-d]pyrimidin-4-yl)amino)ethyl)-2-phenyl-1,2-dihydroisoquinolin-8-yl)benzaldehyde]: in test [1], the inhibition at 0.01 µM is 114% and the inhibition at 0.1 µM is 111%. Also, on DNA-PK(h), the inhibition at 0.01 µM was determined as 82% and the inhibition at 0.1 µM is 98%.
`C[C@H](Nc1ncnc2[nH]ccc(=O)c12)c1c(Cl)c2cccc(-c3ccc(C(N)=O)cc3)c2c(=O)n1-c1ccccc1` [Example 80, (S)-4-(4-chloro-1-oxo-3-(1-((5-oxo-5,8-dihydropyrido[2,3-d]pyrimidin-4-yl)amino)ethyl)-2-phenyl-1,2-dihydroisoquinolin-8-yl)benzamide]: the inhibition at 0.01 µM in test [1] stood at 110%; at DNA-PK(h), 90%. For the same compound, the inhibition at 0.1 µM in test [1] came out at 101%; at DNA-PK(h) it was 106%.
Taken in the same sequence, the figures for `C[C@H](Nc1ncnc2[nH]ccc(=O)c12)c1cc2cccc(-c3ccc(C(N)=O)cc3)c2c(=O)n1-c1ccccc1` [Example 81, (S)-4-(1-oxo-3-(1-((5-oxo-5,8-dihydropyrido[2,3-d]pyrimidin-4-yl)amino)ethyl)-2-phenyl-1,2-dihydroisoquinolin-8-yl)benzamide] were 97%, 22%, 105% and 76%.

Values taken from patent US20230072683A1, “PYRIDO-PYRIMIDIN DERIVATIVES AND PHARMACEUTICAL COMPOSITION, FOR USE IN PREVENTING OR TREATING PI3 KINASE RELATED DISEASES, COMPRISING SAME AS ACTIVE INGREDIENT” (BORYUNG PHARMACEUTICAL CO., LTD, priority 2019, published 2023).
